Earlier results in PMC8609999, “A Phase I trial of talazoparib in patients with advanced hematologic malignancies” (International Journal of Hematologic Oncology, 2021).

Test system: CLL or MCL patients
Design: method as in PMID 28643365
Conditions: not statistically significant; cited from earlier work

O=C(c1cc(Cc2n[nH]c(=O)c3ccccc23)ccc1F)N1CCN(C(=O)C2CC2)CC1 [olaparib]
Overall survival in patients with ATM mutations versus those without: trend towards improved overall survival
